Measurements: patent US20220363665A1, “QUINOLINE COMPOUNDS FOR THE TREATMENT OF AUTOIMMUNE DISEASE” (Hoffmann-La Roche Inc., priority 2019, published 2022)

Target: T1, human TLR9 (Homo sapiens, UniProt Q9NR96)
T1 construct: host or cells: HEK293 (HEK-Blue hTLR9)
T1 sequence (Q9NR96 26-1032): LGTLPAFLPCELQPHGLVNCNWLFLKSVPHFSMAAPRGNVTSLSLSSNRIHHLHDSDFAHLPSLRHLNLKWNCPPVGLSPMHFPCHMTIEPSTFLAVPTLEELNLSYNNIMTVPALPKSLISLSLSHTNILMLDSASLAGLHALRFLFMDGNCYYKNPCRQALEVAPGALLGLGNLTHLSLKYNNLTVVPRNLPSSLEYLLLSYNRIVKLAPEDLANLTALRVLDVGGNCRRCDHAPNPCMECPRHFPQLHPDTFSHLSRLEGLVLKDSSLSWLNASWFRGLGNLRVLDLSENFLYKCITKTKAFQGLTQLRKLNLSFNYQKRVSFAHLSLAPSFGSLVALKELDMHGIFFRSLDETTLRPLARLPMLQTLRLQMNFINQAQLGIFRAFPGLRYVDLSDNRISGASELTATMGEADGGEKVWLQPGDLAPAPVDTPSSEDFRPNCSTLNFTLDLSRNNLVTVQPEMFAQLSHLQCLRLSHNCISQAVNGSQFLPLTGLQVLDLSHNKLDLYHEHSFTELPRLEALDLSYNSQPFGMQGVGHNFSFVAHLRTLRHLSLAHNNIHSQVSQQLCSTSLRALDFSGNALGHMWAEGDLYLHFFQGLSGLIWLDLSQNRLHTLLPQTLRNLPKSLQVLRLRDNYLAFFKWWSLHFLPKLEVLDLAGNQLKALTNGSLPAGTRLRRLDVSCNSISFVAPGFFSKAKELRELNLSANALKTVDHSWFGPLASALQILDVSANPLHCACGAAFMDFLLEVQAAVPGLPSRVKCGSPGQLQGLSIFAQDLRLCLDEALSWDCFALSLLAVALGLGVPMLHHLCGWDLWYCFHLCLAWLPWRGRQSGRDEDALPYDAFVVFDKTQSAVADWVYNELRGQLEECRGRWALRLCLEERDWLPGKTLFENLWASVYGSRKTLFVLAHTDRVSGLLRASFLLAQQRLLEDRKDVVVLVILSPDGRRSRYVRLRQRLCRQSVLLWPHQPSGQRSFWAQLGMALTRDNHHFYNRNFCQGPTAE
Experiment: HEK293-Blue-hTLR-9 cells assay (SEAP reporter, ODN2006 stimulation)
Format: cell-based
Details: HEK293-Blue-hTLR9 cells, ODN2006, 20 hrs
Protocol: The following tests were carried out in order to determine the activity of the compounds of formula (I) in HEK293-Blue-hTLR-7/8/9 cells assay.
HEK293-Blue-hTLR-9 Cells Assay:
A stable HEK293-Blue-hTLR-9 cell line was purchased from InvivoGen (Cat. #. hkb-htlr9, San Diego, Calif., USA). These cells were originally designed for studying the stimulation of human TLR9 by monitoring the activation of NF-κB. A SEAP (secreted embryonic alkaline phosphatase) reporter gene was placed under the control of the […] minimal promoter fused to five NF-κB and AP-1-binding sites. The SEAP was induced by activating NF-κB and AP-1 via stimulating HEK-Blue hTLR9 cells with TLR9 ligands. Therefore the reporter expression was declined by TLR9 antagonist under the stimulation of a ligand, such as ODN2006 (Cat. #: tlrl-2006-1, Invivogen, San Diego, Calif., USA), for incubation of 20 hrs. The cell culture supernatant SEAP reporter activity was determined using QUANTI-Blue™ kit (Cat. #: rep-qbl, Invivogen, San Diego, Calif., USA) at a wavelength of 640 nm, a detection medium that turns purple or blue in the presence of alkaline phosphatase.
HEK293-Blue-hTLR9 cells were incubated at a density of […] cells/mL in a volume of 170 μL, in a 96-well plate in Dulbecco's Modified Eagle's medium (DMEM) containing 4.5 g/L glucose, 50 U/mL penicillin, […], […], 2 mM L-glutamine, 10% (v/v) heat-inactivated fetal bovine serum with addition of 20 μL test compound in a serial dilution in the presence of final DMSO at 1% and 10 μL of 20 uM ODN2006 in above DMEM, perform incubation under 37° C. in a CO2 incubator for 20 hrs. Then 20 μL of the supernatant from each well was incubated with 180 μL Quanti-blue substrate solution at 37° C. for 2 hrs and the absorbance was read at 620˜655 nm using a spectrophotometer. The signalling pathway that TLR9 activation leads to downstream NF-κB activation has been widely accepted, and therefore similar reporter assay was modified for evaluating TLR9 antagonist.

IC50 | SMILES
11.6 µM | C[C@@H]1CN(c2ccc(C(F)(F)F)c3ncccc23)C[C@H](C(=O)NC2C3CCCC2CNC3)O1 (stereo partly drawn) [Example 45, (2R,6R)-N-(3-azabicyclo[3.3.1]nonan-9-yl)-6-methyl-4-[8-(trifluoromethyl)-5-quinolyl]morpholine-2-carboxamide]
11.7 µM | C[C@@H]1CN(c2ccc(C(F)(F)F)c3ncccc23)C[C@H](C(=O)NCC2CNCCO2)O1 (stereo partly drawn) [Example 48, (2R,6R)-6-methyl-N-(morpholin-2-ylmethyl)-4-[8-(trifluoromethyl)-5-quinolyl]morpholine-2-carboxamide]
